Among the data in US7772252B2, “Heterocyclic substituted carbonyl derivatives and their use as dopamine D3 receptor ligands” (Aventis Pharmaceuticals Inc., priority 2001, dated 2010) are Ki values, retold here.

The target in one test is T1, cloned human dopamine D3 receptors (Homo sapiens, UniProt P35462).
T1 construct: expressed in transfected cells; membrane homogenate
T1 sequence (P35462 whole entry): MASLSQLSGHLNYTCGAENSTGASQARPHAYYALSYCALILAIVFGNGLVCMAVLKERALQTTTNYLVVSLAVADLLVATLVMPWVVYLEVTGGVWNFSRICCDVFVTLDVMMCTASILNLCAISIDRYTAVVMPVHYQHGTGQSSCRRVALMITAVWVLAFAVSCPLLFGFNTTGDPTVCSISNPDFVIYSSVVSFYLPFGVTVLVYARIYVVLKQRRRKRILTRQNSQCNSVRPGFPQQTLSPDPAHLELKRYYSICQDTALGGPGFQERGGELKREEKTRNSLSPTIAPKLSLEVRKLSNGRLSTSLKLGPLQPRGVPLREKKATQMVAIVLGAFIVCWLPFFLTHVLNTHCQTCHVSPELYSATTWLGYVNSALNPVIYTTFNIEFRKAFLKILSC
As to the kind of experiment: [N-Methyl-3H]Spiroperidol binding to cloned human dopamine D3 receptors. The note with it: read-out: D3 Ki. An excerpt: [N-Methyl-^3H]Spiroperidol Binding to Cloned Human Dopamine D3 Receptors
This assay measures the in vitro activity of compounds on cloned human dopamine (D3) receptors and predicts the direct dopamine-blocking properties of putative neuropsychiatric agents at human dopamine D3 receptors.
The D3 gene was isolated from a human striatal cDNA library (Stratagene). The gene was sequenced and sub-cloned into the expression vector RC/RSV (Invitrogen). CHO (Chinese Hamster Ovary) cells were stably transfected with 10 μg of the D3/RSV plasmid using the DOTAP method from Boehringer Mannheim and 72 clones that were G418 resistant were isolated. Using mRNA and binding displacement data a single high expressing clone was identified. This clone was then grown in large batches for the purpose of developing a 96 well format assay.
• 1. One plate (10 cm) with approximately 2-3 million D3 cells per plate is incubated with 1 ml of Trypsin-EDTA at room temperature for ˜2 min or until cells have lifted off plates. Four ml of Ham's F12+10% Fetal Bovine Serum+1% Penicillin/Streptomycin+G418 (400 μg/ml) medium are added to resuspend cells and 1 ml of this is added to each large plate (15 cm) containing 19 ml of the same medium as mentioned above. • 2. The 5 large plates are incubated at 37° C.+5% CO2 for ˜3 days or until the cells are confluent. • 3. After these plates are confluent, they are split into 10 large plates. Medium is aspirated off, 2 ml of Trypsin-EDTA are added to each plate and plates are incubated at RT for 2 min or until cells have lifted off the plate. Eight ml of the F12 medium (same medium as #1 above) are added to each plate (10 ml total) to resuspend the cells and 5 ml are transferred to the 2 new plates containing 15 ml of the F12 media. • 4. The 10 large plates are incubated at 37° C.+5% CO2 for ˜2 days or until the cells are confluent. • 5. The 10 large plates are split into 60 large plates (using Trypsin-EDTA as #3 except 4 ml of F12 medium are added to resuspend cells and 1 ml is aliquoted to 6 new plates containing 19 ml of F12 medium each). • 6. Plates are incubated at 37° C.+5% CO2 for ˜3 days or until cell are confluent. • 7. The 60 large plates are then split into 60 roller bottles (100-150 million cells/bottle). Medium is aspirated off, 2 ml of Trypsin-EDTA are added to each plate and incubated at RT for ˜2 minutes or until cells have lifted off plates. Eight ml of F12 medium are added to each plate to resuspend cells and the entire 10 ml are added to 1 roller bottle containing 90 ml of the F12 medium. • 8. The 60 roller bottles are immediately placed on their sides and transferred to the roller bottle incubator. They are incubated at 37° C.+5% CO2 for ˜3-5 days. Cells are spun at 30-40% motor speed in the Form a incubator. • 9. Medium is poured off and cells are washed 2× in PBS. • 10. Cells are then scraped off in 20 ml of PBS and the bottles are rinsed again with 5 ml of PBS to remove any remaining cells. Cells are stored on ice before membrane preparation. • 11. The yield for 60 D3 roller bottles has varied from ˜260-500 mg. • Note: All tissue culture reagents are from Gibco-BRL. C. Membrane Preparation
The cells are harvested into 250 ml centrifuge tubes with 100 volumes of cold phosphate buffered saline (PBS) and spun down (1200×G for 10 min at 4° C.). The medium is removed and 100 ml PBS are added to each centrifuge tube, cells are resuspened and spun down again. The PBS is removed and the final pellet is homogenized in an appropriate volume of 10% DMSO with a polytron on ice at a medium setting.
A 200 μl sample membrane homogenate is added to 200 μl of 1% SDS, vortexed and allowed to stand for 5 min. Aliquots (25, 50 and 100 μl) of this mixture are assayed in duplicate following the standard Bio-Rad DC protein assay protocol (kit catalog number 500-0112) and using reagent S. Absorbance readings are made at 750 nm (note: the most accurate protein OD readings are between 0.1-0.5 units). […]
Regarding `CC(C)(C)OC(=O)N1CCCCC1CCNC(=O)[C@@H]1C[C@H]1CN1CCN(c2csc3cc(C(F)(F)F)ccc23)CC1` (mixture of isomers) [compound 832500], the Ki is 161 nM. Regarding `COc1c(F)ccc2c(C3CCN(CC4CC4C(=O)NC4CCC(C)CC4)CC3)noc12` (racemic) [compound 830134], the Ki is 0.602 nM. On to `O=C(NCCc1ccccc1Cl)C1CC1CN1CCC(c2noc3ccsc23)CC1` (racemic) [compound 831798], for which the Ki worked out at 46.3 nM. Regarding `CCC1CCC(NC(=O)C2CC2CN2CCCN(c3onc4c3CCc3ccc(OC)cc3-4)CC2)CC1` (racemic) [compound 830131], the Ki was 34.1 nM. With `COc1ccc2c(c1)c(N1CCN(C[C@@H]3C[C@H]3C(=O)NCCc3ccc(F)cc3)CC1)nn2C` [compound 833629], the Ki was found to be 2.69 nM. As for `CC(C)(C)c1ccc(CN2CCN(C(=O)C3CC3CN3CCC(c4noc5ccsc45)CC3)CC2)cc1` (racemic) [compound 832157], the Ki came to 0.226 nM. The same measure, in the same setting: the value for `O=C([C@@H]1C[C@H]1CN1CCC(c2noc3ccc(C(F)(F)F)cc23)CC1)N1CCCC(Cn2ccnc2)C1` (mixture of isomers) [A002200835] was 0.4 nM.

Regarding `N=C(N)N1CCC(CNC(=O)[C@@H]2C[C@H]2CN2CCN(c3csc4cc(C(F)(F)F)ccc34)CC2)CC1` [compound 832496], the Ki is 3.66 nM.

Consider `O=C(NC1CCN(Cc2cccc3ccccc23)CC1)C1CC1CN1CCC(c2noc3ccsc23)CC1` (racemic) [compound 831822], for which the Ki stood at 1.38 nM.

`CC1CCC(NC(=O)C2CC2CN2CCC(Cc3ccccc3)CC2)CC1` (racemic) [compound 827209]: the Ki turned out to be 30.4 nM. With `O=C(NC1CCN(C(=O)c2ccc(Cl)c(Cl)c2)CC1)C1CC1CN1CCC(c2noc3ccsc23)CC1` (racemic) [compound 832464], the Ki was 12.8 nM. With `O=C(NCCCN1CCCCC1)C1(CCN2CCN(c3csc4cc(C(F)(F)F)ccc34)CC2)CC1` [compound 833475], the Ki is 22.4 nM. On to `O=C(c1ccc(Cl)cc1)C1CCN(C(=O)[C@@H]2C[C@H]2CN2CCN(c3csc4cc(C(F)(F)F)ccc34)CC2)CC1` [compound 831882], for which the Ki is 57.3 nM. As for `O=C(NC1CCN(Cc2ncc[nH]2)CC1)[C@@H]1C[C@H]1CN1CCC(c2noc3ccsc23)CC1` [compound 833382], the Ki was determined as 2.32 nM. As for `C[C@H]1CC[C@H](NC(=O)[C@@H]2C[C@H]2CN2CCC(c3n[nH]c4ccc(C(F)(F)F)cc34)CC2)CC1` [compound 833934], the Ki was 0.633 nM. On to `O=C(NCCOc1ccccc1)[C@@H]1C[C@H]1CN1CCC(c2noc3ccsc23)CC1` [compound 831343], for which the Ki worked out at 13.7 nM. Turning to `O=C([C@@H]1C[C@H]1CN1CCC(c2noc3ccsc23)CC1)N1CCN(CCc2cccs2)CC1` [compound 833163], the Ki came to 17.5 nM.

With `C[C@H]1CC[C@H](NC(=O)[C@@H]2C[C@H]2CN2CCN(c3nc4cccc5c4n3CCC5)CC2)CC1` [compound 833699, 2R-[4-(5,6-Dihydro-4H-imidazo[4,5,1-ij]quinolin-2-yl)-piperazin-1-ylmethyl]-1R-cyclopranecarboxylic acid (trans-4-methyl-cyclohexyl)-amide], the Ki amounted to 7.2 nM.

Turning to `COc1ccc2c(c1)c(N1CCN(C[C@@H]3C[C@H]3C(=O)N(C)C3CCN(C)CC3)CC1)nn2C` [compound 832745], the Ki was 15 nM. As to `C[C@H]1CC[C@H](NC(=O)[C@H]2C[C@@H]2CN2CCN(c3noc4ccsc34)CC2)CC1` [compound 831082], the Ki was determined as 38.2 nM. On to `COc1ccc2c(c1)c(N1CCN(C[C@@H]3C[C@H]3C(=O)NC3CCN(Cc4cccc(Cl)c4)CC3)CC1)nn2C` [compound 833836], for which the Ki came to 1.36 nM. On the same count and under the same terms, as for `COc1cccc2c(C3CCN(C[C@@H]4C[C@H]4C(=O)NC4CC5CCC(C4)N5C)CC3)nn(C)c12` (some centres unmarked) [A002328939], the figure is 201 nM; as for `O=C([C@@H]1C[C@H]1CN1CCC(c2noc3ccsc23)CC1)N1CCN(Cc2ccc(Cl)c(Cl)c2)CC1` [compound 832532], 14.4 nM. Same read-out and setting: as for `CCC1CCC(NC(=O)C2CC2CN2CCN(CCc3ccccc3)CC2)CC1` (racemic) [compound 827237], the figure is 153 nM; as for `COc1c(F)ccc2c(C3CCN(C[C@@H]4C[C@H]4C(=O)N[C@H]4CC[C@H](C)CC4)CC3)noc12` [compound 831361, 2R-[4-(6-Fluoro-7-methoxy-benzo[d]isoxazol-3-yl)-piperidin-1-ylmethyl]-1R-cyclopranecarboxylic acid (trans-4-methyl-cyclohexyl)-amide], 1.75 nM; as for `COc1cc2c(cc1OC)CN(C(=O)[C@@H]1C[C@H]1CN1CCC(c3noc4ccsc34)CC1)CC2` [compound 831196], 7.81 nM.

Regarding `CC(C)(C)C(=O)O[C@H]1CC[C@H](NC(=O)[C@@H]2C[C@H]2CN2CCC(c3csc4c(C(F)(F)F)cccc34)CC2)CC1` [compound 833151], the Ki was found to be 11.2 nM.

For the compound `O=C(NCCCc1cc[nH]c1)[C@@H]1C[C@H]1CN1CCN(c2csc3cc(C(F)(F)F)ccc23)CC1` [compound 832494], the Ki is 25 nM.

Consider `O=C(NC1CCN(Cc2ccc(F)cc2F)CC1)[C@@H]1C[C@H]1CN1CCC(c2noc3ccsc23)CC1` [compound 833167], for which the Ki is 1.57 nM.

As for `O=C(NC1CCN(Cc2ccc(F)cc2)CC1)C1CC1CN1CCC(c2noc3ccsc23)CC1` (racemic) [compound 831993], the Ki worked out at 2.51 nM. As to `Cc1cccc(CN2CCC(NC(=O)[C@@H]3C[C@H]3CN3CCC(c4noc5ccsc45)CC3)CC2)c1` [compound 832788], the Ki stood at 1.84 nM. Consider `CC(C)(C)OC(=O)N1CCCC(CNC(=O)[C@@H]2C[C@H]2CN2CCN(c3csc4cc(C(F)(F)F)ccc34)CC2)C1` (mixture of isomers) [compound 832501], for which the Ki was 41.4 nM. Regarding `O=C(NC1CCN(Cc2ncc[nH]2)CC1)[C@@H]1C[C@H]1CN1CCN(c2csc3cc(C(F)(F)F)ccc23)CC1` [compound 832583], the Ki was found to be 1.61 nM. As for `Cc1ccc2[nH]cc(CCNC(=O)[C@@H]3C[C@H]3CN3CCC(c4noc5ccsc45)CC3)c2c1` [compound 831277], the Ki amounted to 5.38 nM. For `O=C(C1CC1CN1CCC(c2noc3ccsc23)CC1)N1CCC(Oc2ccc(Cl)cc2)CC1` (racemic) [compound 831794], the Ki worked out at 27.3 nM. Regarding `Cc1ccc2c(c1)c(C1CCN(C[C@@H]3C[C@H]3C(=O)N3CCC[C@@H](Cn4ccnc4)C3)CC1)nn2C` [A002437354], the Ki worked out at 1.03 nM.

As to `COc1ccc2c(c1)c(N1CCN(C[C@@H]3C[C@H]3C(=O)NC3CCN(Cc4ccc(F)c(F)c4)CC3)CC1)nn2C` [compound 833626], the Ki came out at 2.17 nM. On the same count and under the same terms, as for `O=C(NC1CCN(Cc2ccc(F)cc2F)CC1)[C@@H]1C[C@H]1CN1CCN(c2csc3cc(C(F)(F)F)ccc23)CC1` [compound 833516], the figure is 21.7 nM. The same measure, in the same setting: as for `Cn1nc(N2CCN(C[C@@H]3C[C@H]3C(=O)NC3CCN(CC4CCCCC4)CC3)CC2)c2sccc21` [A002287757], the figure is 2.41 nM; as for `CN1CCN(CCCNC(=O)[C@@H]2C[C@H]2CN2CCN(c3csc4cc(C(F)(F)F)ccc34)CC2)CC1` [compound 832579], 6.29 nM.

Staying with this test, now noted: read-out: d3Ki.
`CC[C@H]1CC[C@H](NC(=O)CCCN2CCN(c3csc4cc(C(F)(F)F)ccc34)CC2)CC1` [compound 826806]: the Ki was 40 nM.
